Experimental data reported in the NIST ThermoML archive (doi:10.1016/j.jct.2016.04.008).

Conditions: Liquid; for mass density: 100 kPa, Buoyancy - hydrostatic balance with magnetic suspension - one sinker

CCCCn1cc[n+](C)c1.F[B-](F)(F)F [1-butyl-3-methylimidazolium tetrafluoroborate]
Conditions	mass density [kg/m3]
264.16 K	1227.3
268.12 K	1224.12
273.71 K	1219.13
278.76 K	1215.77
283.03 K	1212.73
288.51 K	1208.73
293.06 K	1205.28
298.21 K	1201.97
303.18 K	1198.44
307.95 K	1195.03
313.18 K	1191.08
318.12 K	1187.23
323.27 K	1183.84
328.23 K	1179.81
333.27 K	1176.33
338.88 K	1172.3
343.23 K	1169.53
348.21 K	1166.02
353.25 K	1162.72
358.57 K	1159.04
363.9 K	1155.79

CCCCCCCCCCn1cc[n+](C)c1.F[B-](F)(F)F [1-decyl-3-methylimidazolium tetrafluoroborate]
surface tension liquid-gas [mN/m]
Conditions	Ring tensiometer	Willhelmy plate method
283.21 K	30.74	–
287.98 K	30.53	–
288.03 K	–	30.17
293.33 K	30.27	–
293.46 K	–	29.96
298.21 K	30.11	–
298.28 K	–	29.8
303.14 K	29.86	–
303.2 K	–	29.62
308.05 K	29.66	–
308.07 K	–	29.48
313.12 K	29.45	–
313.16 K	–	29.27
318.14 K	–	29.09
318.22 K	29.18	–
322.9 K	–	28.89
322.91 K	28.87	–
328.39 K	28.69	28.66
333.13 K	–	28.48
333.2 K	28.44	–
338.26 K	–	28.28
338.28 K	28.26	–
343.17 K	28.02	–
343.25 K	–	28.12
348.56 K	–	27.89
348.57 K	27.79	–
353.03 K	–	27.7
353.07 K	27.52	–
357.72 K	–	27.55
357.75 K	27.31	–
363.98 K	27.11	27.32

Conditions	mass density [kg/m3]
283.26 K	1083.12
288.04 K	1079.26
293.48 K	1075.46
298.32 K	1072.34
303.26 K	1069.35
308.12 K	1064.91
313.23 K	1061.76
318.16 K	1058.04
323.03 K	1054.91
328.43 K	1051.67
333.15 K	1048.43
338.41 K	1044.81
343.37 K	1041.55
348.69 K	1038.22
353.21 K	1034.92
357.87 K	1032.03
363.98 K	1028.48

CCCCCCCCCCCC[n+]1ccn(C)c1.F[B-](F)(F)F [1-dodecyl-3-methylimidazolium tetrafluoroborate]
surface tension liquid-gas [mN/m]
Conditions	Ring tensiometer	Willhelmy plate method
327.2 K	25.89	–
333.17 K	–	25.79
333.2 K	25.61	–
338 K	–	25.54
338.06 K	25.59	–
342.73 K	–	25.4
343.23 K	25.4	–
347.11 K	25.22	25.26
353.61 K	–	25.03
353.66 K	25.11	–
359.02 K	–	24.82
359.84 K	24.78	–
363.47 K	–	24.64
363.69 K	24.63	–

Conditions	mass density [kg/m3]
328.83 K	1027.93
333.45 K	1024.75
337 K	1022.41
343.4 K	1018.2
347.32 K	1015.89
352.58 K	1012.18
357.71 K	1009
362.85 K	1005.22

CCCCCCCn1cc[n+](C)c1.F[B-](F)(F)F [1-heptyl-3-methylimidazolium tetrafluoroborate]
surface tension liquid-gas [mN/m]
Conditions	Ring tensiometer	Willlhelmy plate method
263.76 K	37.38	–
268.69 K	37.21	–
273.9 K	36.87	–
278.51 K	36.66	–
283.18 K	–	36.23
283.21 K	36.42	–
288.47 K	–	35.98
288.49 K	36.15	–
293.29 K	36.03	35.74
298.21 K	35.76	35.54
303.1 K	35.54	–
303.11 K	–	35.31
308.19 K	–	35.1
308.2 K	35.18	–
313.21 K	34.9	–
313.24 K	–	34.82
317.78 K	34.74	–
317.81 K	–	34.6
323 K	34.45	–
323.06 K	–	34.33
327.79 K	34.24	–
327.8 K	–	34.13
333.01 K	33.87	–
333.09 K	–	33.82
338.61 K	–	33.62
338.64 K	33.54	–
342.42 K	33.44	–
342.5 K	–	33.39
348.76 K	–	33.17
348.79 K	33.17	–
353.93 K	32.8	–
353.99 K	–	32.86
357.12 K	–	32.66
357.16 K	32.47	–
364.34 K	31.97	–
364.4 K	–	32.34

Conditions	mass density [kg/m3]
263.87 K	1147.27
268.63 K	1143.58
273.63 K	1139.44
278.6 K	1136.36
283.19 K	1133.24
288.51 K	1129.35
293.3 K	1126.02
298.21 K	1122.73
303.11 K	1119.42
308.22 K	1115.86
313.23 K	1112.13
317.78 K	1108.94
322.97 K	1105.52
327.81 K	1102.47
333.04 K	1098.48
338.46 K	1095.77
342.6 K	1092.48
348.77 K	1089.11
353.97 K	1085.93
357.24 K	1082.94
364.28 K	1078.73
